Test results published in US8246999B2, “Capped mesoporous silicates” (Iowa State University Research Foundation, Inc., priority 2003, dated 2012).
“Also recorded” adds a separate entry of the source. Counter-ions that a name gives are not always drawn.

How the values were obtained:
[1] = Loading of vancomycin and ATP into linker-MSN and capping with CdS (HPLC of filtrate); format: physicochemical; conditions: for amount of mesopore-encapsulated molecule per 100.0 mg of linker-MSN material: CdS-capped MSN, calculated from concentration decrease in filtrate, HPLC; for loading efficiency: CdS-capped linker-MSN
Description: Purified linker-MSN material from sub-part (b) below (100.00 mg) was incubated in a PBS buffer solution (0.60 mL, pH 7.4) of ATP or vancomycin (3.00 μmol in both cases) for 24 hours. Mercaptoacetic acid-functionalized CdS nanoparticles from sub-part (c) below (0.15 mmol) were dissolved in 2.00 mL of PBS buffer with vancomycin or ATP (0.01 mmol in both cases); 1-[3-(dimethylamino)propyl]-3-ethylcarbodiimide hydrochloride (EDC) (57.50 mg, 0.30 mmol) was added to the CdS/drug solution. The reaction mixture was allowed to stir for 24 hours, followed by centrifuging the suspension at 12 000 rpm for 3 minutes. The resulting precipitates (ATP- or vancomycin-loaded, CdS-capped MSNs) were isolated and dried under vacuum.
The resulting reaction suspensions were centrifuged, and the CdS-capped MSN/drug composite materials along with the unreacted CdS nanoparticles were filtered. The concentrations of the free vancomycin and ATP molecules in the filtrate were then determined by HPLC. The calculated concentration decreases of solution vancomycin and ATP were attributed to the amounts of mesopore-encapsulated vancomycin (2.5 μmol) and ATP (4.7 μmol) per 100.0 mg of linker-MSN material. These numbers correspond to ca. 83.9 and 30.3 mol % loading efficiency, respectively.

[2] = DTT-induced drug/neurotransmitter release study from CdS-capped MSN (HPLC); format: physicochemical; conditions: for amount released / portion of encapsulated molecules released: after 3 days of DTT-induced uncapping; for release as share of the total release seen in 3 days: within 24 hours after introduction of 18.5 mM DTT
Description: CdS-capped MSN with vancomycin or ATP (10.00 mg) material was dispersed in 1.50 mL of PBS buffer (pH 7.4), followed by repeating wash/sonication/centrifugation cycles for five times to remove physisorbed, uncapped vancomycin or ATP molecules on the exterior surface of the material. The purified MSN/drug composite was redispersed in 3.50 mL of PBS buffer (pH 7.4). Aliquots were taken every 4 hours over a time period of 12 hours from the MSN/water suspension and injected to an analytical HPLC system (Hitachi LC/3DQMS with a reverse phase C18 column (Vydac), 0.4 cm×25 cm) to monitor the leaching of the mesoporous channel encapsulated vancomycin or ATP molecules. After 12 hours, dithiothreitol (DTT, 18.50 mM) was added to the suspension to cleave the disulfide linkage between the CdS nanoparticle and the MSN. The kinetic profiles of the DTT-induced release of vancomycin and ATP were monitored by following two literature-reported HPLC separation conditions. The peaks/areas at 280 and 258 nm were monitored/integrated for the quantitative analysis of amounts of released vancomycin and ATP, respectively. See Farin, D., et al., J. Pharm. Biomed. Anal. 1998, 18, 367-372; and Veciana-Nogues, M. T., et al., Food Chem. 1997, 59, 467-472.

[3] = test system: astrocytes; format: cell-based, rat
Description: • (i) Wistar rats, raised at Iowa State University, were used for these experiments. Animal care and experimental protocols were in accordance with the guidelines and approval of the Iowa State University Committee on Animal Care. • (ii) Cell Cultures. Enriched primary astrocyte cultures from neonatal (P0 to P3) rat cerebral cortex were prepared as previously described by Jeremic, A., et al., J. Neurochem. 2001, 77, 664-675. Briefly, freshly dissected cortical tissues from three animals were incubated 50 minutes at 37° C. in 2.00 mL of Earle's balanced salt solution (EBSS; Gibco-Invitrogen Co.) containing papain (1.54 mg/mL; Sigma-Aldrich Co.). After incubation, tissue was rinsed with EBSS solution and incubated for 5 minutes in trypsin-inhibitor solution (1 mg/mL; Gibco-Invitrogen Co.). After being rinsed, once with EBSS solution and once with culture medium (consisting of α-minimum essential medium (α-MEM; Gibco-Invitrogen Co.) supplemented with 10% heat-inactivated fetal bovine serum (FBS; Gibco-Invitrogen Co.) and 1.00 mL of penicillin-streptomycin solution (Sigma-Aldrich Co.) per 100 mL), the tissue was mechanically dispersed in culture medium by triturating through a fire-polished glass pipet. The cell suspension was transferred to sterile 15-mL centrifuge tubes and spun at 1000 g for 10 minutes. Cell pellets were resuspended in culture medium (α-MEM supplemented with 10% heat-inactivated FBS and 1.00 mL of penicillin-streptomycin solution per 100.00 mL) and plated in culture flasks. Cells were maintained at 37° C. in a humidified 5% CO2/95% air atmosphere. Culture medium was changed every 2 to 3 days. When mixed cultures reached confluence (9-12 days), the flasks were shaken (260 rpm) for 90 minutes to remove microglia and dividing type I astroglia. After shaking the cells, medium was replaced, and the flasks were incubated for 1 hour to equilibrate with CO2 in the fresh medium. Cultures were then shaken overnight (12-18 hours) at 260 rpm at 37° C. Cultures enriched in type I astroglia were obtained by trypsinizing (0.25%; Sigma-Aldrich Co.) attached cells for 5 minutes. […]

[4] = literature reports; cited from earlier work

Compound | amount of mesopore-encapsulated molecule per 100.0 mg of linker-MSN material [1] [µmol] | loading efficiency [1] | amount released [2] [µmol] | portion of encapsulated molecules released [2] [%] | release as share of the total release seen in 3 days [2] [%] | [Ca^2+]i response of astrocytes to ATP ([3]; 100.0 μM ATP perfusion, no MSNs, ME-treated astrocytes, triphosphate disodium salt) | [Ca^2+]i response of astrocytes to ATP in presence of empty capped MSNs ([3]; 100.0 μM ATP perfusion, CdS-capped MSNs without ATP encapsulation present, triphosphate disodium salt) | isoelectric point (pI) [4] | [Ca^2+]i response of astrocytes to ME ([3]; ME 1.0 mM for 5 minutes, without MSNs)
Nc1ncnc2c1ncn2[C@@H]1O[C@H](COP(=O)([O-])OP(=O)([O-])OP(=O)(O)O)[C@@H](O)[C@H]1O.[Na+].[Na+] [ATP, adenosine triphosphate disodium salt] | 4.7 | ~30.3 mol % | 1.3 | 28.2 | 85 | obvious increases in [Ca^2+]i | [Ca^2+]i increased; also recorded: An increase in [Ca^2+]i |  | 
CN[C@H](CC(C)C)C(=O)N[C@H]1C(=O)N[C@@H](CC(N)=O)C(=O)N[C@H]2C(=O)N[C@H]3C(=O)N[C@H](C(=O)N[C@H](C(=O)O)c4cc(O)cc(O)c4-c4cc3ccc4O)[C@H](O)c3ccc(c(Cl)c3)Oc3cc2cc(c3O[C@@H]2O[C@H](CO)[C@@H](O)[C@H](O)[C@H]2O[C@H]2C[C@](C)(N)[C@H](O)[C@H](C)O2)Oc2ccc(cc2Cl)[C@H]1O [vancomycin, Vancomycin hydrochloride] | 2.5 | ca. 83.9 mol % | 1.6 | 53.8 | 85 |  |  | 8.3 | 
OCCS [ME] |  |  |  |  |  |  |  |  | no increase in [Ca^2+]; also recorded: failed to produce any [Ca^2+]i response
